Assay results from PubChem BioAssay AID2060618 (Molecular Pharmacology Branch, DTP, NCI, 2025).

Tested on: 454973-116-R2-J3-PDC spheroids, percent test/control viability
Assay: Anticancer human tumor 454973-116-R2-J3-PDC patient-derived pancreatic carcinoma cell line growth inhibition [CLK]
Settings: spheroids with HUVEC and MSC; for IC50: curve of first compound; for viability, T/C: stronger effect = lower value
Method in brief: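 Patient-derived tumor cells grown as complex spheroids with HUVEC endothelial cells and mesenchymal stem cells, treated with drug combinations. Concentrations descend in half-log steps from near clinical Cmax, or from 10 microM if Cmax unknown.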

[1] = second compound 0.0316 µM, first compound 0.0316 µM
[2] = second compound 0.0316 µM, first compound 0.1 µM
[3] = second compound 0.0316 µM, first compound 0.316 µM
[4] = second compound 0.0316 µM, first compound 1 µM
[5] = second compound 0.0316 µM, first compound 3.16 µM
[6] = second compound 0.0316 µM, first compound 10 µM
[7] = second compound 0.1 µM, first compound 0.0316 µM
[8] = second compound 0.1 µM, first compound 0.1 µM
[9] = second compound 0.1 µM, first compound 0.316 µM
[10] = second compound 0.1 µM, first compound 1 µM
[11] = second compound 0.1 µM, first compound 3.16 µM
[12] = second compound 0.1 µM, first compound 10 µM
[13] = second compound 0.316 µM, first compound 0.0316 µM
[14] = second compound 0.316 µM, first compound 0.1 µM
[15] = second compound 0.316 µM, first compound 0.316 µM
[16] = second compound 0.316 µM, first compound 1 µM
[17] = second compound 0.316 µM, first compound 3.16 µM
[18] = second compound 0.316 µM, first compound 10 µM
[19] = second compound 1 µM, first compound 0.0316 µM
[20] = second compound 1 µM, first compound 0.1 µM
[21] = second compound 1 µM, first compound 0.316 µM
[22] = second compound 1 µM, first compound 1 µM
[23] = second compound 1 µM, first compound 3.16 µM
[24] = second compound 1 µM, first compound 10 µM
[25] = second compound 3.16 µM, first compound 0.0316 µM
[26] = second compound 3.16 µM, first compound 0.1 µM
[27] = second compound 3.16 µM, first compound 0.316 µM
[28] = second compound 3.16 µM, first compound 1 µM
[29] = second compound 3.16 µM, first compound 3.16 µM
[30] = second compound 3.16 µM, first compound 10 µM
[31] = second compound 10 µM, first compound 0.0316 µM
[32] = second compound 10 µM, first compound 0.1 µM
[33] = second compound 10 µM, first compound 0.316 µM
[34] = second compound 10 µM, first compound 1 µM
[35] = second compound 10 µM, first compound 3.16 µM
[36] = second compound 10 µM, first compound 10 µM
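Further: spheroids exposed to compounds for 7 days before readout.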

## CC(=O)O[C@H]1C(=O)[C@@]2(C)[C@H]([C@H](OC(=O)c3ccccc3)[C@]3(O)C[C@H](OC(=O)[C@H](O)[C@@H](NC(=O)c4ccccc4)c4ccccc4)C(C)=C1C3(C)C)[C@]1(OC(C)=O)CO[C@@H]1C[C@@H]2O + CN1CCN(c2cc(C(=O)Nc3cc4cc(-c5cnn(C)c5)ccc4cn3)ccn2)CC1
Second compound 0.0316 µM
  IC50: < 31.6 nM
Second compound 0.1 µM
  IC50: < 31.6 nM
Second compound 0.316 µM
  IC50: < 31.6 nM
Second compound 1 µM
  IC50: < 31.6 nM
Second compound 3.16 µM
  IC50: < 31.6 nM
Second compound 10 µM
  IC50: < 31.6 nM
[1]
  viability, T/C: 7.05%
[2]
  viability, T/C: 6.65%
[3]
  viability, T/C: 6.57%
[4]
  viability, T/C: 6.34%
[5]
  viability, T/C: 6.67%
[6]
  viability, T/C: 12.9%
[7]
  viability, T/C: 5.8%
[8]
  viability, T/C: 5.47%
[9]
  viability, T/C: 3.95%
[10]
  viability, T/C: 5.69%
[11]
  viability, T/C: 4.88%
[12]
  viability, T/C: 6.14%
[13]
  viability, T/C: 1.6%
[14]
  viability, T/C: 1.85%
[15]
  viability, T/C: 2.44%
[16]
  viability, T/C: 1.75%
[17]
  viability, T/C: 1.77%
[18]
  viability, T/C: 1.9%
[19]
  viability, T/C: 0.11%
[20]
  viability, T/C: 0.1%
[21]
  viability, T/C: 0.92%
[22]
  viability, T/C: 0.07%
[23]
  viability, T/C: 0.08%
[24]
  viability, T/C: 0.09%
[25]
  viability, T/C: 0.14%
[26]
  viability, T/C: 0.12%
[27]
  viability, T/C: 0.21%
[28]
  viability, T/C: 0.12%
[29]
  viability, T/C: 0.15%
[30]
  viability, T/C: 0.13%
[31]
  viability, T/C: 0.14%
[32]
  viability, T/C: 0.17%
[33]
  viability, T/C: 0.19%
[34]
  viability, T/C: 1.2%
[35]
  viability, T/C: 0.16%
[36]
  viability, T/C: 2.06%

## COc1ccc([C@@H](O)c2cc(-c3ncnc4cc(N5CCOCC5)ccc34)c(F)cc2Cl)nn1 + CN1CCN(c2cc(C(=O)Nc3cc4cc(-c5cnn(C)c5)ccc4cn3)ccn2)CC1
Second compound 0.0316 µM
  IC50: > 10000 nM
Second compound 0.1 µM
  IC50: 2720 nM
Second compound 0.316 µM
  IC50: < 31.6 nM
Second compound 1 µM
  IC50: < 31.6 nM
Second compound 3.16 µM
  IC50: < 31.6 nM
Second compound 10 µM
  IC50: < 31.6 nM
[1]
  viability, T/C: 93.8%
[2]
  viability, T/C: 107%
[3]
  viability, T/C: 101%
[4]
  viability, T/C: 90.8%
[5]
  viability, T/C: 73.5%
[6]
  viability, T/C: 54.9%
[7]
  viability, T/C: 74.8%
[8]
  viability, T/C: 79.1%
[9]
  viability, T/C: 71.5%
[10]
  viability, T/C: 66.5%
[11]
  viability, T/C: 47.4%
[12]
  viability, T/C: 28.6%
[13]
  viability, T/C: 1.76%
[14]
  viability, T/C: 1.85%
[15]
  viability, T/C: 2.44%
[16]
  viability, T/C: 1.05%
[17]
  viability, T/C: 1.4%
[18]
  viability, T/C: 2.15%
[19]
  viability, T/C: 0.11%
[20]
  viability, T/C: 0.11%
[21]
  viability, T/C: 2.22%
[22]
  viability, T/C: 0.08%
[23]
  viability, T/C: 0.07%
[24]
  viability, T/C: 0.06%
[25]
  viability, T/C: 0.09%
[26]
  viability, T/C: 0.15%
[27]
  viability, T/C: 0.16%
[28]
  viability, T/C: 0.14%
[29]
  viability, T/C: 0.11%
[30]
  viability, T/C: 0.72%
[31]
  viability, T/C: 2.12%
[32]
  viability, T/C: 0.13%
[33]
  viability, T/C: 0.29%
[34]
  viability, T/C: 0.16%
[35]
  viability, T/C: 0.99%
[36]
  viability, T/C: 0.16%

## COc1cccc2c1C(=O)c1c(O)c3c(c(O)c1C2=O)CC(O)(C(=O)CO)CC3OC1CC(N)C(O)C(C)O1 (stereo unspecified) + CN1CCN(c2cc(C(=O)Nc3cc4cc(-c5cnn(C)c5)ccc4cn3)ccn2)CC1
Second compound 0.0316 µM
  IC50: < 31.6 nM
Second compound 0.1 µM
  IC50: < 31.6 nM
Second compound 0.316 µM
  IC50: < 31.6 nM
Second compound 1 µM
  IC50: < 31.6 nM
Second compound 3.16 µM
  IC50: < 31.6 nM
Second compound 10 µM
  IC50: < 31.6 nM
[1]
  viability, T/C: 40.8%
[2]
  viability, T/C: 27.2%
[3]
  viability, T/C: 21%
[4]
  viability, T/C: 8.81%
[5]
  viability, T/C: 0.25%
[6]
  viability, T/C: 0.19%
[7]
  viability, T/C: 29.2%
[8]
  viability, T/C: 26.5%
[9]
  viability, T/C: 17.9%
[10]
  viability, T/C: 3.51%
[11]
  viability, T/C: 0.16%
[12]
  viability, T/C: 0.16%
[13]
  viability, T/C: 1.16%
[14]
  viability, T/C: 1.16%
[15]
  viability, T/C: 1.46%
[16]
  viability, T/C: 0.14%
[17]
  viability, T/C: 0.33%
[18]
  viability, T/C: 0.12%
[19]
  viability, T/C: 0.11%
[20]
  viability, T/C: 0.15%
[21]
  viability, T/C: 1.47%
[22]
  viability, T/C: 0.11%
[23]
  viability, T/C: 0.12%
[24]
  viability, T/C: 0.18%
[25]
  viability, T/C: 0.08%
[26]
  viability, T/C: 0.45%
[27]
  viability, T/C: 0.15%
[28]
  viability, T/C: 0.15%
[29]
  viability, T/C: 0.17%
[30]
  viability, T/C: 0.1%
[31]
  viability, T/C: 0.12%
[32]
  viability, T/C: 0.43%
[33]
  viability, T/C: 0.13%
[34]
  viability, T/C: 0.12%
[35]
  viability, T/C: 0.14%
[36]
  viability, T/C: 0.11%
